ChEMBL document CHEMBL1201862, “PubChem BioAssay data set” (2004)
Activity calls are given as the source filed them.

What was measured:
[1] = target: Galanin receptor type 3 (Homo sapiens, UniProt O60755); experiment: Fluorescence-based cell-based primary high throughput dose response assay to identify antagonists of the Galanin Receptor 3 (GalR3).; type: functional
[2] = cells; type: functional, cell-based; settings: HEK-CNG
[3] = target: Beta-lactamase (Salmonella choleraesuis (strain SC-B67), UniProt Q5J463); experiment: Epi-absorbance-based counterscreen for selective VIM-2 inhibitors: dose response biochemical high throughput screening assay to identify inhibitors of TEM-1 serine-beta-lactamase.
Chain of Beta-lactamase (Salmonella choleraesuis (strain SC-B67), UniProt Q5J463) (Q5J463 whole entry): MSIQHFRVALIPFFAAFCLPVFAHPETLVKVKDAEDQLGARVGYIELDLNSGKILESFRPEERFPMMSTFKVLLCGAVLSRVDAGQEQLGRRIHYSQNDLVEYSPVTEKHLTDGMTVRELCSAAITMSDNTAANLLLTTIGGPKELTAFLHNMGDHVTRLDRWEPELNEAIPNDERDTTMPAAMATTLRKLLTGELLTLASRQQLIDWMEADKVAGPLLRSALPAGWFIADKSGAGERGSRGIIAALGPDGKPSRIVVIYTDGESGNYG

[4] = target: T1, Beta-lactamase (Pseudomonas aeruginosa, UniProt Q79MP6); experiment: […] counterscreen for selective VIM-2 inhibitors: dose response biochemical high throughput screening assay to identify inhibitors of IMP-1 metallo-beta-lactamase.
T1 sequence (Q79MP6 whole entry): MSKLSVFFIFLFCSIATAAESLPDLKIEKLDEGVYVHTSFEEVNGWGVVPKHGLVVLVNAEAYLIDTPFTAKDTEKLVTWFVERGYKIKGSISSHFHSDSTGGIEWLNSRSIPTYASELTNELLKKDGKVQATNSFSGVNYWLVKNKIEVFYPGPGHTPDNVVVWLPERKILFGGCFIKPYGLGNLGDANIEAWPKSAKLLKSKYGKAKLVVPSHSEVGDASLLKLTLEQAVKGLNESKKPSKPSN

[5] = target: T1, Beta-lactamase; experiment: inhibition of IMP-1 beta-lactamase activity – biochemical, epi-absorbance, selectivity assay for VIM-2 inhibitor project, dose response (AID 1920)
[6] = target: Beta-galactosidase (Escherichia coli, UniProt Q8VNN2); experiment: Dose response counterscreen for EBI2 assay utilizing the enzyme, b-galactosidase.; type: functional
Chain of Beta-galactosidase (Q8VNN2 whole entry): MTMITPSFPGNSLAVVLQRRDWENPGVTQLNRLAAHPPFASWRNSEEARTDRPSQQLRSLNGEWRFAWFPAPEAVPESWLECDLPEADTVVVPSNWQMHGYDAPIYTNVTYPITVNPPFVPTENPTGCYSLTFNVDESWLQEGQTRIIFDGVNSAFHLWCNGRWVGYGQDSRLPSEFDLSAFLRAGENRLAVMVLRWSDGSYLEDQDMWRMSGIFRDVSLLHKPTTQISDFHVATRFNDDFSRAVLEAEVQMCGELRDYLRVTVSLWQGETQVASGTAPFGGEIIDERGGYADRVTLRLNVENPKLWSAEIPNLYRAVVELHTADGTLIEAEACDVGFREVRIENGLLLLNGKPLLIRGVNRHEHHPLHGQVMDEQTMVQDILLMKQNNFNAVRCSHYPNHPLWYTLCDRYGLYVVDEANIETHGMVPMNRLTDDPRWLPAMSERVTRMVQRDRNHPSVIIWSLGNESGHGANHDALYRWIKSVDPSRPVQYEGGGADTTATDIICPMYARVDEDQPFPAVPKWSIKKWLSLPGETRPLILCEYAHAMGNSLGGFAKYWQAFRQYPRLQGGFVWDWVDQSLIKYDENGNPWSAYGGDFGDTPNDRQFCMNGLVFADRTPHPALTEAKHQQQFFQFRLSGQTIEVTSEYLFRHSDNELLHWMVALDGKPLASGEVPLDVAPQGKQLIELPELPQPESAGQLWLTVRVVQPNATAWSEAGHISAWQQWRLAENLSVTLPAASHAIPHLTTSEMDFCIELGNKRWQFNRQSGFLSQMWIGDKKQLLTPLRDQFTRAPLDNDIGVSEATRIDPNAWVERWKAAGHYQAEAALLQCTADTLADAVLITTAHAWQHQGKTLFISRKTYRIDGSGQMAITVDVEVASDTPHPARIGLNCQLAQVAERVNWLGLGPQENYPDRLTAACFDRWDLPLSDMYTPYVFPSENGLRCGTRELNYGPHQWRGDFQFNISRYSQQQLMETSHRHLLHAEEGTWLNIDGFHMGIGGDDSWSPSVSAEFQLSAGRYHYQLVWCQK

[7] = mouse fibroblast viability loss – cell-based, cherry-pick samples, set 2, cytotoxicity control for T. cruzi growth inhibitor project, dose response (AID 651817); type: functional; settings: NIH3T3
[8] = T. cruzi growth inhibition in host cells, dose response, cell-based, plate reader, dry powder, set 2 (AID 652275); type: functional
[9] = target: T2, Oxysterols receptor LXR-beta (Homo sapiens, UniProt P55055); type: functional, cell-based;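 note: agonist activity at LXR measured by a cell-based luminescence readout across a dose range, run as a counterscreen for daf-12 agonists; HEK293 cells with Gal4-LXR fusion and GAL4-driven luciferase reporter; potency for activation of Gal4-LXR reporter so compounds are agonists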
T2 sequence (P55055 whole entry): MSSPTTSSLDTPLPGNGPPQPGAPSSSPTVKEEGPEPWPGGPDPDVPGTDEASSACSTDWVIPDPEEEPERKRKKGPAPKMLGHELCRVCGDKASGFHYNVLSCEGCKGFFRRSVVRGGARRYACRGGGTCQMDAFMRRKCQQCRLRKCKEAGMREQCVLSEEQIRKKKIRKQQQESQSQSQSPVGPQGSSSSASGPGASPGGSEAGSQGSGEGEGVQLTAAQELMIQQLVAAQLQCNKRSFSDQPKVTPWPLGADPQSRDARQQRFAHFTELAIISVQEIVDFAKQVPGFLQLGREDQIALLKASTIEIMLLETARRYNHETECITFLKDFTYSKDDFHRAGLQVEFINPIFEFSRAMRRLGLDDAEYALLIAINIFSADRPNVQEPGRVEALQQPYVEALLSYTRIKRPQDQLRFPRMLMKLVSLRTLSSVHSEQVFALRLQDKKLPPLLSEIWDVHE

[10] = general mammalian cell viability loss – activator set, cherry-pick, cytotoxicity control for miR-122 modulator project, dose response (AID 720690); type: functional, cell-based;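 note: HEK293T human cells scored for general mammalian cytotoxicity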

Chain of Galanin receptor type 3 (O60755 whole entry): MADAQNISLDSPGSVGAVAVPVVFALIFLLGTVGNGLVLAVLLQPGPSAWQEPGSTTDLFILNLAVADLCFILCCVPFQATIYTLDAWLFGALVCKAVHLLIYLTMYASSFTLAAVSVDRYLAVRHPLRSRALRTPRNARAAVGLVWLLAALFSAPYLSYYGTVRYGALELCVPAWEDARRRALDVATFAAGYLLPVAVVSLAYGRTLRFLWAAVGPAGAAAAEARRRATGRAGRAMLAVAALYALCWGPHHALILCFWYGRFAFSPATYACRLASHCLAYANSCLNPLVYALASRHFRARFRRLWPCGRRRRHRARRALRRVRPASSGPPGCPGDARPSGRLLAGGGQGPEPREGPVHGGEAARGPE

For COc1ccc(CN2CCC(C(=O)Nc3ccc(Oc4ccccc4)nc3)CC2)cc1F, the IC50 [1] was 3.56 µM (active) and the EC50 [2] was > 29.9 µM (inactive).
In the case of Cc1cc(C(=O)OCC(=O)NC(=O)c2cccn2C)c2ccccc2n1, the IC50 [3] is reported as > 59.6 µM (inactive), the IC50 [4] is reported as > 59.6 µM (inactive) and the IC50 [5] is reported as > 59.6 µM (inactive).
For CO/N=C/c1ccc(Oc2ccc(C)cc2)nc1, the IC50 [6] was > 80 µM (inactive).
In the case of C[C@H]1CN([C@@H](C)CO)C(=O)c2cccc(NC(=O)c3nc4ccccc4s3)c2O[C@@H]1CN(C)Cc1ccc2c(c1)OCO2, the AC50 [7] is reported as 9.31 µM (active).
For C[C@@H]1CN([C@@H](C)CO)C(=O)c2cccc(NC(=O)c3ccncc3)c2O[C@@H]1CN(C)Cc1ccccc1, the AC50 [7] was 39 µM (inactive).
For CC(C)N1C[C@@H](CN(C)Cc2ccc(Cl)cc2)Oc2c(NC(=O)c3ccncc3)cccc2C1=O, the AC50 [8] was 0.0045 µM (active).
In the case of c1ccc(N=Nc2ccc(C3=NCCO3)cc2)cc1, the EC50 [9] is reported as > 67.6 µM (inactive).
For CCCNC(=O)C[C@@H]1CC[C@H]2[C@H](COc3ccc(NC(=O)c4ccc(C(F)(F)F)cc4)cc3C(=O)N2C)O1, the AC50 [10] was 31.5 µM (active).
